Results from article PMC3133470, “Activity of Cathelicidin Peptides against Simkania negevensis” (International Journal of Peptides, 2011).
Where no end group is shown, it is not given here.

Key:
[1] = system: Simkania negevensis reference strain Z (ATCC VR-1471); assay: Inhibition of Simkania negevensis infectivity (reduction of inclusions) after pre-incubation of elementary bodies with peptide; format: cell-based; settings: purified EBs incubated with peptide 2 h at room temperature in PBS/SPG pH 7.4; tenfold dilutions 100 to 0.01 μg/mL; LLC-MK2 cells, 72 h at 35°C; inclusions by immunofluorescence; untreated control mean 74 IFU/mL; means of three experiments in triplicate
Description: The cathelicidin peptides—PG-1 from pig, Bac7 (1–35) from cattle, SMAP-29 from sheep, LL-37 from human, BMAP-27, and BMAP-28 from cattle—were chemically synthesized, purified, characterized, and provided as lyophilized peptide, as previously reported. The reference strain Z of S. negevensis (American Type Culture Collection VR-1471) was grown in LLC-MK2 cells in 6-large well plates and elementary bodies (EBs) were purified by use of sucrose gradients, resuspended in sucrose-phosphate-glutamic acid buffer (SPG) pH 7.4 (75 g sucrose, 87 mL 0.2 M Na2HPO4, 13 mL 0.2 M NaH2PO4, 0.72 g L-glutamic acid), and frozen in aliquots at −80°C.
Stock solutions of each peptide at 1 g/liter were prepared in phosphate-buffered saline (PBS), pH 7.4, and stored frozen in 20-μL aliquots at −80°C until used. To determine the lowest peptide concentration required to achieve ≥50% reduction of inclusions with respect to untreated control, the various peptides were diluted tenfold from 200 to 0.02 μg/mL, in a volume of 100 μL with PBS in polypropylene tubes. An equal volume of 5 × 10^5 inclusion-forming units (IFU)/mL of purified S. negevensis EBs in SPG medium was then added, so obtaining a final cathelicidin concentration ranging from 100 to 0.01 μg/mL in a mixture of PBS and SPG at a final pH 7.4. EBs untreated with cathelicidins were used as a control. After incubation at room temperature for 2 h, a 200 μL aliquot was added to 800 μL chlamydial growth medium and inoculated onto LLC-MK2 cells grown in 24-well plates in a 5% CO2 atmosphere. After centrifugation at 800 × g for 1 h at 33°C and incubation at 35°C for 72 h, the cultures were fixed and stained for the presence of inclusions by immunofluorescence using an in-house rabbit polyclonal hyperimmune serum raised against S. negevensis. The number of IFU per coverslip was counted in 40 microscopic fields using a ZEISS UV microscope at a magnification of ×200.
All tests were performed in triplicate and in three independent experiments.

[2] = system: Chlamydophila felis; settings: previous study of the authors; cited from earlier work
Description: (§1) With regard to the other chlamydial species tested, only Chlamydophila pneumoniae and Chlamydophila felis were sensitive to 10 μg/mL of SMAP-29 and 80 μg/mL of SMAP-29/Bac7, respectively.

[3] = system: Chlamydia trachomatis strains; settings: previous study of the authors; cited from earlier work
Description: as §1

| Substance | lowest peptide concentration required to achieve ≥50% reduction of inclusions with respect to untreated control [1] | concentration to which Chlamydophila felis was sensitive [2] | concentration with inhibitory effect on Chlamydia trachomatis strains [3] |
| --- | --- | --- | --- |
| Bac7: cathelicidin peptide Bac7 (1–35) from cattle, chemically synthesized (RRIRPRPPRLPRPRPRPLPFPRPGPRPIPRPLPFP; Bactenecin 7; UniProt P19661 131-165, looked up, fragment) | 0.1 µg/mL | 80 µg/mL |  |
| LL-37 | > 100 µg/mL |  | > 80 µg/mL |
| PG-1: cathelicidin peptide from pig, chemically synthesized; native protegrin-1 has two intramolecular disulfide bonds (RGGRLCYCRRRFCVCVGR; not fully specified (bridges); ends and bridges not checked; also: native protegrin-1 has two intramolecular disulfides, pairing not given here; UniProt P32194 131-148, looked up) | 1 µg/mL |  |  |
